The record followed here is patent publication US20080096807A1, “Cyclic vasoactive intestinal peptide receptor-2 agonists” (priority 2006, published 2008).

Bridge positions count the residues as written; N and C are the ends. Square brackets hold non-standard residues; d marks the D form. Peptide text beside a SMILES is read from it. ξ: configuration not given here. Thr(3ξ) = CC(O)[C@H](N)C(=O)O; Nle = CCCC[C@H](N)C(=O)O

One data set deals with T1, VPAC2 receptor (Homo sapiens, UniProt P41587).
T1 construct: The human T-lymphoid cell line Sup-Ti, which expresses the VPAC2 receptor; host or cells: Sup-T1 (Sup-Ti [sic]) human T-lymphoid cell line
T1 sequence (P41587 24-438): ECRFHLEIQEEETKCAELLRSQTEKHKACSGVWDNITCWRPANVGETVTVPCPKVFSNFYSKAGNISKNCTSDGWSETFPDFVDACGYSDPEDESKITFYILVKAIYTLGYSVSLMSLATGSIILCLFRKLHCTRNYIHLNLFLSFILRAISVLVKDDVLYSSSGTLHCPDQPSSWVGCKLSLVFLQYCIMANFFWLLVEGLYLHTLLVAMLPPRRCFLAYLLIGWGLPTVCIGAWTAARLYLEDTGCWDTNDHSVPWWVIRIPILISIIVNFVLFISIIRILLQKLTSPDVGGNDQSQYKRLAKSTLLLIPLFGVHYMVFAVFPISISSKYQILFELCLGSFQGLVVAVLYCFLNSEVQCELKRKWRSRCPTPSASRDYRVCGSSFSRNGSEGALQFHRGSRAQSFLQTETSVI
Briefly: Sup-T1 cAMP agonist assay. Format: cell-based. The note with it: human T-lymphoid cell line Sup-T1 expressing VPAC2 receptor; cAMP EIA; 5 min at room temperature; read-out: Sup-T1 cAMP EC50. As for the experimental part:
The human T-lymphoid cell line Sup-Ti, which expresses the VPAC2 receptor, was obtained from the American Type Culture Collection (ATCC, CRL-1942) and maintained in growth medium at densities between 0.2 and 2×10^6 cells/ml in a 37° C. CO2 incubator. The growth medium was RPMI 1640 (Invitrogen) supplemented with 25 mM HEPES buffer and 10% fetal bovine serum (Gemini Bioproducts).
To evaluate VPAC2 agonist compound activity, cells in log-phase growth were washed once with growth medium at room temperature and plated into 96-well plates at a density of 4×10^4 cells per well in 150 uL of growth medium. Fifty uL of the compounds to be tested, prepared at appropriate concentrations in growth medium, were then added to designated wells. After 5 min at room temperature, the cells were lysed by adding 25 uL of lysis reagent 1A (cAMP Biotrak EIA system, Amersham Biosciences, RPN225) to each well. The 96-well plates were kept at room temperature for 10 min with shaking and then stored at 4° C. until analysis for cAMP (within 2 hr).
Cyclic AMP levels were determined in 100 uL of each lysate using the cAMP Biotrak Enzymeimmunoassay (EIA) kit according to the manufacture's instructions (Amersham Biosciences, RPN225). The activity of each VPAC2 agonist compound (EC50 value) was estimated by fitting the 7-concentration dose response data to a sigmoidal dose-response equation provided by the GraphPad Prism program (GraphPad Software, Inc.).

In data set [1] the test system is LPS-induced lung inflammation in male C57BL/6 mice. As to the kind of experiment: LPS-induced lung inflammation in male C57BL/6 mice (BAL neutrophilia). The note with it: BAL fluid neutrophilia. Format: in vivo. As for the experimental part:
C57bl/6 mice are pretreated with vehicle or drug prior to an aerosol expose to lipopolysacchride (LPS, 500 μg/ml in sterile saline) for 15-30 minutes. The aerosol is generated by a Pari Ultra neb jet nebulizer, the outlet of which is connected to a small clear plastic chamber [H×W×D, 10.7×25.7×11 cm (4×10×4.5 in)] containing the animals. Bronchoalveolar lavage (BAL) is performed 24 hr later to determine the intensity of cell inflammation. BAL procedure is performed as described below.
Mice are pretreated with vehicle or drug prior to an intranasal administration of lipopolysacchride (0.05-0.3 mg/kg in sterile saline; 50 μl total volume, 25 μl/nostril). Intranasal administration is performed by presenting small droplets of the dosing solution at the nostril using a 25-50 μl eppendorff pipet. BAL is performed 3 to 24 h post LPS challenged as described above to determine the intensity of cell inflammation.
24 h following LPS exposure, animals are anesthetized with pentobarbital (80-100 mg/kg, i.p.), ketamine/xyzaline (80-120 mg/kg/2-4 mg/kg, i.p.) or urethane (1.5-2.4 g/kg, i.p.); and through a small midline neck incision (15-20 mm), the trachea is exposed and cannulated with 20-gauge tubing adapter. Lungs are lavaged with 2×1 ml sterile Hank's balanced salt solution without Ca++ and Mg++(HBSS). Lavage fluid is recovered after 30 sec by gentle aspiration and pooled for each animal. Samples are then centrifuged at 2000 rpm for 10 minutes at 5° C. Supernatant is aspirated, and red blood cells are lysed from the resulting pellet with 0.5 ml distilled water for 30 sec before restoring osmolarity to the remaining cells by the addition of 5 ml of HBSS. Samples are recentrifuged at 2000 rpm for 10 minutes at 5° C. and supernatant aspirated. The resulting pellet is resuspended in 1 ml of HBSS. Total cell number is determined by Trypan Blue (Sigma Chemical, St. Louis, Mo.) exclusion from an aliquot of cell suspension using a hemocytometer or coulter counter. For differential cell counts, an aliquot of the cell suspension is centrifuged in a Cytospin (5 min, 1300 rpm; Shandon Southern Instruments, Sewickley, Pa.) and the slides fixed and stained with a modified Wright's stain (Hema 3 stain kit, Fisher Scientific). Standard morphological criteria is used in classifying at least 300 cells under light microscopy. Data in Table 3 is expressed as BAL cells×10^4/animal for neutrophils and total cells, or percent inhibition of the LPS induced BAL fluid neutrophilia response.

Data set [2] deals with T2, human neutrophil elastase (Homo sapiens, UniProt P08246).
T2 sequence (P08246 30-247 limits assumed): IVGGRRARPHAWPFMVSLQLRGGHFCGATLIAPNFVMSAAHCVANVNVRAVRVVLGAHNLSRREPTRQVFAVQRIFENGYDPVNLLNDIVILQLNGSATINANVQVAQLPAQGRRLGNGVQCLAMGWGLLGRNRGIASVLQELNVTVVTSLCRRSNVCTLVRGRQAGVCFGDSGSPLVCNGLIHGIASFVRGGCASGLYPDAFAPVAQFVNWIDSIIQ
Briefly: Peptide stability to neutrophil elastase (RP HPLC ESI MS). The note with it: halftime with human neutrophil elastase 1 to 2 μg/mL in PBS, ambient temperature, normalized to halftime of the reference standard.

In the case of `CCCC[C@H](NC(=O)[C@H](CCC(N)=O)NC(=O)[C@H](CCCCN)NC(=O)[C@H](CCCNC(=N)N)NC(=O)[C@H](CC(C)C)NC(=O)[C@H](CCCCN)NC(=O)[C@@H](NC(=O)[C@H](Cc1ccc(O)cc1)NC(=O)[C@H](CC(N)=O)NC(=O)[C@H](CCC(=O)O)NC(=O)[C@@H](NC(=O)[C@H](Cc1ccccc1)NC(=O)[C@@H](NC(=O)[C@H](C)NC(=O)[C@H](CC(=O)O)NC(=O)[C@H](CO)NC(=O)[C@H](Cc1c[nH]cn1)NC(C)=O)C(C)O)C(C)O)C(C)O)C(=O)N[C@@H](C)C(=O)N[C@@H](C)C(=O)N[C@@H](CCCCN)C(=O)N[C@H]1CCCCNC(=O)C[C@@H](C(=O)N[C@@H](CC(C)C)C(=O)N[C@@H](CCCCN)C(=O)N[C@@H](CCCCN)C(=O)NCC(=O)NCC(=O)N[C@H](C(N)=O)C(C)O)NC(=O)[C@H](CC(N)=O)NC(=O)[C@H](CC(C)C)NC(=O)[C@H](Cc2ccc(O)cc2)NC1=O` (stereo partly drawn) [Example 1] (Ac-HSDA[Thr(3ξ)]F[Thr(3ξ)]ENY[Thr(3ξ)]KLRKQ[Nle]AAKKYLNDLKKGG[Thr(3ξ)]-NH2; lactam 21-25), the EC50 at VPAC2 receptor is 38 nM. In addition, the “Inhibition of LPS-induced neutrophilia” value in data set [1] (Dose 0.1%) was “+ (+ 10-30%)”. This compound also registered a Relative elastase stability in data set [2] of 3.9.

`CCCC[C@H](NC(=O)[C@H](CCC(N)=O)NC(=O)[C@H](CCCCN)NC(=O)[C@H](CCCNC(=N)N)NC(=O)[C@H](CC(C)C)NC(=O)[C@H](CCCCN)NC(=O)[C@@H](NC(=O)[C@H](Cc1ccc(O)cc1)NC(=O)[C@H](CC(N)=O)NC(=O)[C@H](CCC(=O)O)NC(=O)[C@@H](NC(=O)[C@H](Cc1ccccc1)NC(=O)[C@H](CO)NC(=O)[C@H](C)NC(=O)[C@H](CC(=O)O)NC(=O)[C@H](CO)NC(=O)[C@H](Cc1c[nH]cn1)NC(C)=O)C(C)O)C(C)O)C(=O)N[C@@H](C)C(=O)N[C@@H](C)C(=O)N[C@@H](CCCCN)C(=O)N[C@H]1CCCCNC(=O)C[C@@H](C(=O)N[C@@H](CC(C)C)C(=O)N[C@@H](CCCCN)C(=O)N[C@@H](CCCCN)C(=O)NCC(=O)NCC(=O)N[C@H](C(N)=O)C(C)O)NC(=O)[C@H](CC(N)=O)NC(=O)[C@H](CC(C)C)NC(=O)[C@H](Cc2ccc(O)cc2)NC1=O` (stereo partly drawn) [Example 2] (Ac-HSDASF[Thr(3ξ)]ENY[Thr(3ξ)]KLRKQ[Nle]AAKKYLNDLKKGG[Thr(3ξ)]-NH2; lactam 21-25): the concentration giving a half-maximal response (EC50) at VPAC2 receptor was 69.7 nM. Further, in data set [1] (Dose 0.1%), the “Inhibition of LPS-induced neutrophilia” value is “+ (+ 10-30%)”. This compound had a Relative elastase stability in data set [2] of 5.2.

As to `CCCC[C@H](NC(=O)[C@H](CCC(N)=O)NC(=O)[C@H](CCCCN)NC(=O)[C@H](CCCNC(=N)N)NC(=O)[C@H](CC(C)C)NC(=O)[C@H](CCCCN)NC(=O)[C@@H](NC(=O)[C@H](Cc1ccc(O)cc1)NC(=O)[C@H](CC(N)=O)NC(=O)[C@H](CCC(=O)O)NC(=O)[C@@H](NC(=O)[C@H](Cc1ccccc1)NC(=O)[C@H](CO)NC(=O)[C@H](C)NC(=O)[C@H](CC(=O)O)NC(=O)[C@H](CO)NC(=O)[C@H](Cc1c[nH]cn1)NC(C)=O)C(C)O)C(C)O)C(=O)N[C@@H](CCC(=O)O)C(=O)N[C@@H](C)C(=O)N[C@@H](CCCCN)C(=O)N[C@H]1CCCCNC(=O)C[C@@H](C(=O)N[C@@H](CC(C)C)C(=O)N[C@@H](CCCCN)C(=O)N[C@@H](CCCCN)C(=O)NCC(=O)NCC(=O)N[C@H](C(N)=O)C(C)O)NC(=O)[C@H](CC(N)=O)NC(=O)[C@H](CC(C)C)NC(=O)[C@H](Cc2ccc(O)cc2)NC1=O` (stereo partly drawn) [Example 7] (Ac-HSDASF[Thr(3ξ)]ENY[Thr(3ξ)]KLRKQ[Nle]EAKKYLNDLKKGG[Thr(3ξ)]-NH2; lactam 21-25), on VPAC2 receptor, the EC50 came out at 632 nM. Also, the “Inhibition of LPS-induced neutrophilia” value in data set [1] (Dose 0.01%) is “++ (++ >30%)”. For the same compound, the Relative elastase stability in data set [2] is listed as 16.4.

With `CCCC[C@H](NC(=O)[C@H](CCC(N)=O)NC(=O)[C@H](CCCCN)NC(=O)[C@H](CCCNC(=N)N)NC(=O)[C@H](CC(C)C)NC(=O)[C@H](CCCCN)NC(=O)[C@@H](NC(=O)[C@H](Cc1ccc(O)cc1)NC(=O)[C@H](CC(N)=O)NC(=O)[C@H](CCC(=O)O)NC(=O)[C@@H](NC(=O)[C@H](Cc1ccccc1)NC(=O)[C@H](CO)NC(=O)[C@H](C)NC(=O)[C@H](CC(=O)O)NC(=O)[C@H](CO)NC(=O)[C@H](Cc1c[nH]cn1)NC(C)=O)C(C)O)C(C)O)C(=O)N[C@@H](C)C(=O)N[C@@H](C)C(=O)N[C@@H](CCCCN)C(=O)N[C@H]1CCCCNC(=O)C[C@@H](C(=O)N[C@@H](CC(C)C)C(=O)N[C@@H](CC(C)C)C(=O)N[C@@H](CCCCN)C(=O)NCC(=O)NCC(=O)N[C@H](C(N)=O)C(C)O)NC(=O)[C@H](CC(N)=O)NC(=O)[C@H](CC(C)C)NC(=O)[C@H](Cc2ccc(O)cc2)NC1=O` (stereo partly drawn) [Example 8] (Ac-HSDASF[Thr(3ξ)]ENY[Thr(3ξ)]KLRKQ[Nle]AAKKYLNDLLKGG[Thr(3ξ)]-NH2; lactam 21-25), the EC50 at VPAC2 receptor amounted to 11.4 nM. In addition, in data set [1] (Dose 0.1%), the “Inhibition of LPS-induced neutrophilia” value is “++ (++ >30%)”. The same compound displayed a Relative elastase stability in data set [2] of 3.5.

As for `CCCC[C@H](NC(=O)[C@H](CCC(N)=O)NC(=O)[C@H](CCCCN)NC(=O)[C@H](CCCNC(=N)N)NC(=O)[C@H](CC(C)C)NC(=O)[C@H](CCCCN)NC(=O)[C@@H](NC(=O)[C@H](Cc1ccc(O)cc1)NC(=O)[C@H](CC(N)=O)NC(=O)[C@H](CCC(=O)O)NC(=O)[C@@H](NC(=O)[C@H](Cc1ccccc1)NC(=O)[C@H](CO)NC(=O)[C@H](C)NC(=O)[C@H](CC(=O)O)NC(=O)[C@H](CO)NC(=O)[C@H](Cc1c[nH]cn1)NC(C)=O)C(C)O)C(C)O)C(=O)N[C@@H](CCCCN)C(=O)N[C@@H](C)C(=O)N[C@@H](CCCCN)C(=O)N[C@H]1CCCCNC(=O)C[C@@H](C(=O)N[C@@H](CC(C)C)C(=O)N[C@@H](CCCCN)C(=O)N[C@@H](CCCCN)C(=O)NCC(=O)NCC(=O)N[C@H](C(N)=O)C(C)O)NC(=O)[C@H](CC(N)=O)NC(=O)[C@H](CC(C)C)NC(=O)[C@H](Cc2ccc(O)cc2)NC1=O` (stereo partly drawn) [Example 9] (Ac-HSDASF[Thr(3ξ)]ENY[Thr(3ξ)]KLRKQ[Nle]KAKKYLNDLKKGG[Thr(3ξ)]-NH2; lactam 21-25), the EC50 on VPAC2 receptor came to 1200 nM. For the same compound, the “Inhibition of LPS-induced neutrophilia” value in data set [1] (Dose 0.01%) is “+ (+ 10-30%)”. For the same compound, the Relative elastase stability in data set [2] came to 12.0.
